{"source": "ChEMBL document CHEMBL1201862", "about": "“PubChem BioAssay data set” (2004)", "key": {"[1]": {"molecular_target": "Dual specificity protein kinase CLK1 (Homo sapiens, UniProt P49759)", "sequence (P49759 whole entry)": "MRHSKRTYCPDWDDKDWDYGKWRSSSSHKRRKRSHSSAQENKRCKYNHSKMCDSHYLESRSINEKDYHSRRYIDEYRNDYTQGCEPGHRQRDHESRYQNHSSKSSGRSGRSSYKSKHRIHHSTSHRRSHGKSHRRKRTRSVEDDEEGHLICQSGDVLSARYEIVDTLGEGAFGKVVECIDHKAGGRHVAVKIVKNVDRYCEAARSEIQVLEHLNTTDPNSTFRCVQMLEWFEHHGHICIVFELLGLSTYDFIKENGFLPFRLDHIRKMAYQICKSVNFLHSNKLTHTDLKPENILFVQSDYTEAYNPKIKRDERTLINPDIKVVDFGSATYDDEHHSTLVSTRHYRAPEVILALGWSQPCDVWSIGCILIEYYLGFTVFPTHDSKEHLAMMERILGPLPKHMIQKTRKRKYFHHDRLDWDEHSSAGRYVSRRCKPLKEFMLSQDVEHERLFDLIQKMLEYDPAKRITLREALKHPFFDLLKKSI", "assay": "CLK1 kinase inhibitors, off-target check, dose response, selectivity assay for Dyrk1A inhibitor project, biochemical, cherry-picked samples (AID 588811)"}, "[2]": {"tested_on": "Escherichia coli", "assay": "microbe, parasite or virus in culture"}, "[3]": {"assay": "cells", "assay_type": "functional, cell-based"}, "[4]": {"assay": "NIH-3T3 fibroblast cytotoxicity, dose response, cytotoxicity control, cell-based, fluorescence, Alamar Blue, secondary assay (AID 2327);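 also: NIH-3T3 mouse fibroblasts cultured with fluconazole at 8 µg/mL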", "assay_type": "functional"}, "[5]": {"tested_on": "A-375", "assay": "MITF: Counter assay: A375 proliferation Measured in Cell-Based System Using Plate Reader - 2084-03_Inhibitor_Dose_DryPowder_Activity. [Related pubchem assays (depositor defined):AID488944]", "assay_type": "functional", "settings": "Homo sapiens"}, "[6]": {"molecular_target": "ATP-dependent molecular chaperone HSP82 (Candida albicans (strain WO-1) (Yeast), UniProt C4YTQ8)", "sequence (C4YTQ8 whole entry)": "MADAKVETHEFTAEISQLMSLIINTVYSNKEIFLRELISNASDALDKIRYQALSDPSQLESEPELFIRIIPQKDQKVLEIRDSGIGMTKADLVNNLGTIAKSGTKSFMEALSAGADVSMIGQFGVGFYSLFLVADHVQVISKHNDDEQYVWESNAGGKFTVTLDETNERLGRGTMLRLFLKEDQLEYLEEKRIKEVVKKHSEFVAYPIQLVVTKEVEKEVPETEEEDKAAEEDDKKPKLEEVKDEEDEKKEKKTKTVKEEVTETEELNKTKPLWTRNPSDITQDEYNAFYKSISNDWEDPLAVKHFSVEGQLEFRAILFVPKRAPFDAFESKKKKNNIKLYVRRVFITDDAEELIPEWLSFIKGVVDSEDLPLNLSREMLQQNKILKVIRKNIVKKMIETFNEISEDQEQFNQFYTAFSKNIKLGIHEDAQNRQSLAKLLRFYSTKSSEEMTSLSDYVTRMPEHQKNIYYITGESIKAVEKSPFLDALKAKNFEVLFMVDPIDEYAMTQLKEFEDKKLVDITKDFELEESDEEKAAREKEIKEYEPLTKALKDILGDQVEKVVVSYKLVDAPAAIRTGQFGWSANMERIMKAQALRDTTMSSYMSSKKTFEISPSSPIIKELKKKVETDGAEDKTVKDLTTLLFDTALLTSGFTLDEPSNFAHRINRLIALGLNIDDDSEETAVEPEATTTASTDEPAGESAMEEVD", "assay": "loss of DOC-induced GRE-beta-galactosidase reporter signal, dose response, Hsp90 inhibitor project, S. cerevisiae, luminescence (AID 2400);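 also: beta-galactosidase luminescence from glucocorticoid response element reporter as proxy for Hsp90 function; inhibitor potency where signal loss means Hsp90 inhibition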", "assay_type": "functional, cell-based"}, "[7]": {"molecular_target": "T1, Serine/threonine-protein phosphatase (Candida dubliniensis (strain CD36 / CBS 7987 / NCPF 3949 / NRRLY-17841) (Yeast), UniProt B9W6M3)", "T1 sequence (B9W6M3 whole entry)": "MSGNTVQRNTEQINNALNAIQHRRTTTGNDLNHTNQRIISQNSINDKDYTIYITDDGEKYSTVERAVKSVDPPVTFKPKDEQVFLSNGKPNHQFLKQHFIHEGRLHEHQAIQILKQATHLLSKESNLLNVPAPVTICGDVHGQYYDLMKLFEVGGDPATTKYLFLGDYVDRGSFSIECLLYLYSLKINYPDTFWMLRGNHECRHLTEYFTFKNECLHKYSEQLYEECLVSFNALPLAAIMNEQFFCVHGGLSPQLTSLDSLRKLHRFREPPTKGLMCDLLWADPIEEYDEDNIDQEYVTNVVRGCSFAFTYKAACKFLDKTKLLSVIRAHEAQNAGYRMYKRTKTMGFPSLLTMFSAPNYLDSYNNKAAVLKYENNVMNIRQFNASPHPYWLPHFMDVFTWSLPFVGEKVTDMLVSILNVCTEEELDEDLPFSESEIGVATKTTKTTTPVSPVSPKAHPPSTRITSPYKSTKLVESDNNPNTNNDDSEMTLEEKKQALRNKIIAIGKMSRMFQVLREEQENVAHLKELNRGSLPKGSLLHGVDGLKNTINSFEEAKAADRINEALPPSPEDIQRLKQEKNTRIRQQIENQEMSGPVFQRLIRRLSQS", "assay": "calcineurin pathway inhibitors in yeast reporter, dose response, S. cerevisiae, CDRE-lacZ, luminescence, secondary (AID 2388);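 also: yeast reporter cells carrying a calcineurin-responsive lacZ construct stimulated with calcium chloride; luminescent beta-galactosidase reporter signal in whole cells rather than isolated phosphatase activity; potency for inhibition where a drop in reporter signal means calcineurin blockade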", "assay_type": "functional, cell-based"}, "[8]": {"assay": "C. albicans growth with fluconazole, confirmation, fluorescence, retest (AID 2467)", "assay_type": "functional, cell-based"}, "[9]": {"assay": "cells", "assay_type": "functional, cell-based", "remark": "listed apart in the source"}, "[10]": {"tested_on": "INS1", "assay": "beta cell apoptosis inhibitors, cytokine rescue, dose response, luminescence, retest (AID 449756);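 also: cell death triggered by IL-1 beta plus TNF-alpha plus IFN-gamma mixture; protective hits raise ATP signal compared with cytokine alone wells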", "assay_type": "functional, cell-based", "settings": "Rattus norvegicus"}, "[11]": {"molecular_target": "T2, Microphthalmia-associated transcription factor (Homo sapiens, UniProt O75030)", "T2 sequence (O75030 whole entry)": "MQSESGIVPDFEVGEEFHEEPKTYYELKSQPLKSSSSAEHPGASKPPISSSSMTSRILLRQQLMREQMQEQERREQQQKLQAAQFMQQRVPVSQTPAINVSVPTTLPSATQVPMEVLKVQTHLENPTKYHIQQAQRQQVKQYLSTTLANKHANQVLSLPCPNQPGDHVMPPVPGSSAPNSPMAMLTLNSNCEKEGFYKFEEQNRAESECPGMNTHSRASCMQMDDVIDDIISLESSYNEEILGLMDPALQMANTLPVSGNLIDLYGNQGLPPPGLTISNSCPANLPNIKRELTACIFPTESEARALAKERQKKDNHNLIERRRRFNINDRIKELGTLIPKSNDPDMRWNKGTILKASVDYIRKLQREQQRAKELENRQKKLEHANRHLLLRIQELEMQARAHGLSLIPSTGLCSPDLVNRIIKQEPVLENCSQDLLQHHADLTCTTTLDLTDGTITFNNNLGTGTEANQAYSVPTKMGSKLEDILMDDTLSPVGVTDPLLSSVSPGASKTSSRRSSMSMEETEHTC", "assay": "TRPM1 promoter luciferase signal decrease, dose response, MITF inhibitor project, cell-based, SK-MEL-5, cherry-picked, set 3 (AID 493073)", "assay_type": "functional"}}, "note": "Calls of active or inactive are those of the source. Rule as the data show it, for most assays here: actives have a measured EC50 and inactives only a lower limit.", "data": [{"smiles": "FC(F)(F)c1cccc(Nc2nccc(-c3ccc4c(c3)OCO4)n2)c1", "values": [{"measurement": "AC50", "setting": "[1]", "value": "15.7 µM (active)"}]}, {"smiles": "CCc1nc2nc(C)c(NS(=O)(=O)c3ccc(Cl)s3)c(O)n2n1", "values": [{"measurement": "AC50", "setting": "[2]", "value": "65.8 µM (active)"}]}, {"smiles": "CCN(CC)c1ccc(/C=N/NC(=O)c2cccc(S(=O)(=O)N3CCOCC3)c2)c(O)c1", "values": [{"measurement": "EC50", "setting": "[3]", "value": "28.5 µM (active)"}, {"measurement": "EC50", "setting": "[4]", "value": "12.5 µM (inconclusive)"}, {"measurement": "AC50", "setting": "[5]", "value": "47.2 µM (active)"}, {"measurement": "EC50", "setting": "[6]", "value": "> 160 µM (inactive)"}, {"measurement": "EC50", "setting": "[7]", "value": "> 180 µM (inactive)"}, {"measurement": "EC50", "setting": "[8]", "value": "0.769 µM (active)"}, {"measurement": "EC50", "setting": "[9]", "value": "2.85 µM (active)"}, {"measurement": "AC50", "setting": "[10]", "value": "0.358 µM (active)"}, {"measurement": "AC50", "setting": "[11]", "value": "1.52 µM (active)"}]}]}
